These results are taken from patent publication US20100173888A1 (Pfizer Inc, priority 2008, published 2010).

human recombinant H-PGDS, sequence (O60760 whole entry): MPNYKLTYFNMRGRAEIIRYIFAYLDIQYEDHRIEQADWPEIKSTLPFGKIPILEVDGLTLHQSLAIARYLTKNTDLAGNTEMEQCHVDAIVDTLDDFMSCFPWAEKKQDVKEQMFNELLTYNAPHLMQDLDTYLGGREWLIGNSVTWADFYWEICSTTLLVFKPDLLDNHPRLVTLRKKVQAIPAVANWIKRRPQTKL

This assay concerns the target human recombinant H-PGDS (Homo sapiens, UniProt O60760). Put plainly: Slightly modified fluorescence intensity h-PGDS TBA enzyme assay (1:40,000 enzyme, 40 second reaction, 1/2 log dilutions, top concentration typically 10 μM). Format: biochemical. Particulars: slightly modified assay: 1:40,000 human recombinant H-PGDS. On the procedure:
Fluoresecence Intensity h-PGDSTBA Enzyme Assay
Prostaglandin D Synthase (PGDS) converts the substrate prostaglandin H2 (PGH2) to prostaglandin D2. The depletion of PGH2 was measured via an Fe(II) reduction of the remaining PGH2 to malondialdehyde (MDA) and 12-HHT. The enzyme assay is based on the quantitative formation of a fluorescent complex from the non-fluorescent compounds MDA and 2-thiobarbituric acid (TBA), substantially as described in U.S. patent application publication US-2004/152148 by Lombardt.
Examples 6-8, 11a-16, 23, 26-47, 49-103, 105-113, 115-118 and 126-128 were tested in a slightly modified assay: The enzyme assay (30 μls during biological process) contained 100 mM Trizma pH 8.0, 100 μM MgCl2, 0.1 mg/ml IgG Rabbit serum, 5.0 μM PGH2 (Cayman; ethanol solution, #17020), 2.5 mM L-Glutathione (Sigma; reduced form #G4251), 1:40,000 human recombinant H-PGDS (from 1 mg/ml), 0.5% DMSO and inhibitor (varying concentration). 3 μls of diluted inhibitor (dissolved in DMSO) was plated into a 384-well assay plate followed by a 24 μl addition of an enzyme solution containing h-PGDS, Trizma, MgCl2, IgG and L-Glutathione. After pre-incubation of inhibitor and enzyme solution for 10 minutes at room temperature, the reaction was initiated with a 3 μl addition of substrate solution in 10 mM HCl. The reaction was terminated after 40 second by the addition of 3 μl stop buffer containing FeCl2 and citric acid. After addition of 45 μls of TBA plates were heated for one hour in a 70° C. oven. Plates were cooled at room temperature overnight and read on a plate reader the next day with excitation @ 530 nm and emission @ 560 nm. IC50' s of inhibitors were calculated with a 4-parameter fit using 11 inhibitor concentrations in duplicate with ½ log serial dilutions. Controls on each plate included no inhibitor (zero % effect) and an inhibitor 500-fold in excess of its' IC50 (100% effect). The highest inhibitor concentration tested was typically 10 μM.
Turning to `O=C(N[C@H]1CCC[C@@H](C(=O)N[C@H]2CCNC2=O)C1)c1ccc(-c2cccc(F)c2)nc1` (mixture of isomers) [Example 64H, 6-(3-fluorophenyl)-N-[cis-3-{[(3S)-2-oxopyrrolidin-3-yl]carbamoyl}cyclohexyl]nicotinamide], the IC50 (commonly the concentration needed to halve the response being measured) was found to be 13 nM.

For `CCN(C)C(=O)[C@H]1CC[C@@H](NC(=O)c2ccc(-c3cccc(F)c3)nc2)CC1` [Example 77, N-{cis-4-[Ethyl(methyl)carbamoyl]cyclohexyl}-6-(3-fluorophenyl)nicotinamide], the IC50 worked out at 6.42 nM.

Turning to `O=C(N[C@@H]1CCCC[C@@H]1O)c1ccc(-c2cccc(F)c2)nc1` (relative stereo) [Example 23], the IC50 worked out at 17.4 nM.

As to `O=C(N[C@H]1CC[C@@H](CN2CCOCC2)CC1)c1ccc(-c2cccc(F)c2)nc1` [Example 80, 6-(3-Fluorophenyl)-N-[cis-4-(morpholin-4-ylmethyl)cyclohexyl]nicotinamide], the IC50 is 16.6 nM.

As to `CC(C)(C)NC(=O)[C@H]1CC[C@@H](NC(=O)c2ccc(-c3cccc(F)c3)nc2)CC1` [Example 75, N-[cis-4-(tert-Butylcarbamoyl)cyclohexyl]-6-(3-fluorophenyl)nicotinamide], the IC50 was 20.6 nM.

In the case of `C[C@]1(C(=O)O)CC[C@H](NC(=O)c2ccc(-c3cccc(F)c3)nc2)CC1` [Example 117, trans-4-({[6-(3-Fluorophenyl)pyridin-3-yl]carbonyl}amino)-1-methylcyclohexanecarboxylic acid], the concentration for half-maximal inhibition (IC50) is 7.17 nM.

Regarding `CC(C)NC(=O)[C@H]1CC[C@H](NC(=O)c2ccc(-c3cccc(F)c3)nc2)CC1` [Example 88, 6-(3-Fluorophenyl)-N-[trans-4-(isopropylcarbamoyl)cyclohexyl]nicotinamide], the IC50 was determined as 14.7 nM.

With `O=C(N[C@H]1CC[C@@H](C(=O)N2CCOCC2)CC1)c1ccc(-c2cccc(F)c2)nc1` [Example 73, 6-(3-Fluorophenyl)-N-[cis-4-(morpholin-4-ylcarbonyl)cyclohexyl]nicotinamide], the concentration for half-maximal inhibition (IC50) amounted to 14 nM.

In the case of `CCN(C)C(=O)[C@@H]1CCC[C@H](NC(=O)c2ccc(-c3cccc(F)c3)nc2)C1` (relative stereo) [Example 32, N-{cis-3-[Ethyl(methyl)carbamoyl]cyclohexyl}-6-(3-fluorophenyl)nicotinamide], the IC50 worked out at 37.9 nM.

For `CCn1cnc2c1CCC(NC(=O)c1ccc(-c3cccc(F)c3)nc1)C2` (stereo not drawn) [Example 126, N-(1-Ethyl-4,5,6,7-tetrahydro-1H-benzoimidazol-5-yl)-6-(3-fluoro-phenyl)-nicotinamide], the IC50 came out at 4.07 nM.

As for `COCCNC1CCC(NC(=O)c2ccc(-c3cccc(F)c3)nc2)CC1` (single isomer, unassigned) [Example 55, 6-(3-Fluorophenyl)-N-{4-[(2-methoxyethyl)amino]cyclohexyl}nicotinamide], the IC50 is 18.5 nM.

For `CN(C)C[C@H]1CC[C@H](NC(=O)c2ccc(-c3cccc(F)c3)nc2)CC1` [Example 112, N-{trans-4-[(Dimethylamino)methyl]cyclohexyl}-6-(3-fluorophenyl)nicotinamide], the IC50 came to 15.8 nM.

`CN1CCN(C[C@H]2CC[C@H](NC(=O)c3ccc(-c4cccc(F)c4)nc3)CC2)CC1` [Example 111, 6-(3-Fluorophenyl)-N-{trans-4-[(4-methylpiperazin-1-yl)methyl]cyclohexyl}nicotinamide]: the IC50 was 23 nM.

As to `CN1CCN(C(=O)[C@H]2CC[C@H](NC(=O)c3ccc(-c4cccc(F)c4)nc3)CC2)CC1` [Example 90, 6-(3-Fluorophenyl)-N-{trans-4-[(4-methylpiperazin-1-yl)carbonyl]cyclohexyl}nicotinamide], the IC50 is 12.6 nM.

With `CC(C)(O)[C@H]1CC[C@H](NC(=O)c2ccc(-c3cccc(F)c3)nc2)CC1` [Example 97, 6-(3-Fluorophenyl)-N-[trans-4-(1-hydroxy-1-methylethyl)cyclohexyl]nicotinamide], the IC50 was found to be 2.9 nM.

`O=C(N[C@@H]1CCC[C@H](C(=O)O)C1)c1ccc(-c2cccc(F)c2)nc1` (relative stereo) [Example 27, cis-3-({[6-(3-Fluorophenyl)pyridin-3-yl]carbonyl}amino)cyclohexanecarboxylic acid]: the IC50 came out at 14.2 nM.

Consider `CN1CCN(C[C@H]2CC[C@@H](NC(=O)c3ccc(-c4cccc(F)c4)nc3)CC2)CC1` [Example 81, 6-(3-Fluorophenyl)-N-{cis-4-[(4-methylpiperazin-1-yl)methyl]cyclohexyl}nicotinamide], for which the IC50 was 53.4 nM.

Regarding `O=C(NC1CCC(N2CCOCC2)CC1)c1ccc(-c2cccc(F)c2)nc1` (single isomer, unassigned) [Example 49, 6-(3-Fluorophenyl)-N-(4-morpholin-4-ylcyclohexyl)nicotinamide], the concentration for half-maximal inhibition (IC50) was 69.2 nM.

As for `CC(C)c1nccn1[C@H]1CC[C@H](NC(=O)c2ccc(-c3cccc(F)c3)nc2)CC1` [Example 106, 6-(3-Fluorophenyl)-N-[trans-4-(2-isopropyl-1H-imidazol-1-yl)cyclohexyl]nicotinamide], the IC50 was found to be 14.2 nM.

As for `O=C(N[C@H]1CCC[C@@H](C(=O)N[C@@H]2CCNC2=O)C1)c1ccc(-c2cccc(F)c2)nc1` (mixture of isomers) [Example 64G, 6-(3-fluorophenyl)-N-[cis-3-{[(3R)-2-oxopyrrolidin-3-yl]carbamoyl}cyclohexyl]nicotinamide], the IC50 was 17.2 nM.

For `O=C(N[C@@H]1CCC[C@H](O)C1)c1ccc(-c2cccc(F)c2)nc1` (relative stereo) [Example 26, 6-(3-Fluorophenyl)-N-[cis-3-hydroxycyclohexyl]nicotinamide], the IC50 stood at 18.2 nM.

In the case of `CN(C)C(=O)[C@H]1CCC[C@@H](NC(=O)c2ccc(-c3cccc(F)c3)nc2)C1` (relative stereo) [Example 31, N-[cis-3-(Dimethyicarbamoyl)cyclohexyl]-6-(3-fluorophenyl)nicotinamide], the IC50 is 10.8 nM.

In the case of `O=C(N[C@H]1CCC[C@@H](C(=O)NCc2ccccc2)C1)c1ccc(-c2cccc(F)c2)nc1` (relative stereo) [Example 30, N-[cis-3-(Benzylcarbamoyl)cyclohexyl]-6-(3-fluorophenyl)nicotinamide], the IC50 amounted to 25.6 nM.

As to `CN(C)C(=O)C[C@H]1CC[C@@H](NC(=O)c2ccc(-c3cccc(F)c3)nc2)CC1` [Example 78], the IC50 came out at 7.89 nM.

On to `O=C(NC1CCC(c2ncc[nH]2)CC1)c1ccc(-c2cccc(F)c2)nc1` (single isomer, unassigned) [Example 63, 6-(3-Fluorophenyl)-N-[4-(1H-imidazol-2-yl)cyclohexyl]nicotinamide], for which the IC50 was 13 nM.

For the compound `CN(Cc1ccccc1)C(=O)[C@@H]1CCC[C@H](NC(=O)c2ccc(-c3cccc(F)c3)nc2)C1` (relative stereo) [Example 39, N-{cis-3-[Benzyl(methyl)carbamoyl]cyclohexyl}-6-(3-fluorophenyl)nicotinamide], the IC50 is 4.26 nM.

`CN(C)C[C@H]1CC[C@@H](NC(=O)c2ccc(-c3cccc(F)c3)nc2)CC1` [Example 67, N-{cis-4-[(Dimethylamino)methyl]cyclohexyl}-6-(3-fluorophenyl)nicotinamide]: the half-inhibitory concentration (IC50) is 118 nM.

For `C[C@]1(C(=O)O)CC[C@@H](NC(=O)c2ccc(-c3cccc(F)c3)nc2)CC1` [Example 116, cis-4-({[6-(3-Fluorophenyl)pyridin-3-yl]carbonyl}amino)-1-methylcyclohexanecarboxylic acid], the IC50 came out at 139 nM.

Regarding `CCN1CCN(C(=O)[C@H]2CC[C@H](NC(=O)c3ccc(-c4cccc(F)c4)nc3)CC2)CC1` [Example 96, N-{trans-4-[(4-Ethylpiperazin-1-yl)carbonyl]cyclohexyl}-6-(3-fluorophenyl)nicotinamide], the IC50 was determined as 23.7 nM.

`CN(C)C(=O)C[C@H]1CC[C@H](NC(=O)c2ccc(-c3cccc(F)c3)nc2)CC1` [Example 95, N-{trans-4-[2-(Dimethylamino)-2-oxoethyl]cyclohexyl}-6-(3-fluorophenyl)nicotinamide]: the IC50 came out at 6.28 nM.

For `Cc1nccn1C[C@H]1CC[C@@H](NC(=O)c2ccc(-c3cccc(F)c3)nc2)CC1` [Example 79, 6-(3-Fluorophenyl)-N-{cis-4-[(2-methyl-1H-imidazol-1-yl)methyl]cyclohexyl}nicotinamide], the IC50 worked out at 15.9 nM.

With `O=C(N[C@H]1CCC[C@@H](C(=O)N2CCC(O)CC2)C1)c1ccc(-c2cccc(F)c2)nc1` (relative stereo) [Example 28, 6-(3-Fluorophenyl)-N-{cis-3-[(4-hydroxypiperidin-1-yl)carbonyl]cyclohexyl}nicotinamide], the IC50 was 3.72 nM.

For `O=C(NC1CCC(N2CCC(O)CC2)CC1)c1ccc(-c2cccc(F)c2)nc1` (stereo not drawn) [Example 62, 6-(3-Fluorophenyl)-N-[4-(4-hydroxypiperidin-1-yl)cyclohexyl]nicotinamide], the IC50 was 137 nM.
